# Test results taken from US6392118B1, “Mx-1 conditionally immortalized cells” (Neurotech S.A., priority 1994, dated 2002).
# Assays:
# [1] = tested on: glial fibrillary acidic protein (GFAP); experiment: GFAP reactivity of neural stem cells encapsulated in BAOs with or without EGF; format: cell-based; conditions: 20 ng/ml EGF
# Method: Neurospheres were prepared using the methods of Weiss et al., PCT/CA 92/00283. Passage 68 neurospheres were collected and divided. Half of the neurospheres were triturated into a single cell suspension and half remained as clusters. A single cell count was performed on a single cell suspension and it was assumed that the clustered cells were of the same concentration. Single cells and clusters were suspended separately in equal amounts of Vitrogen™ and either neurosphere medium with 20 ng/ml EGF as controls, or PC-1 medium.
# Cells were loaded at a density of 25,000 cells/μl into single-skinned hollow fiber PAN/PVC BAOs, prepared substantially as described in Example 2, and then hub sealed. The BAOs were held in either neurosphere+EGF medium or in PC-1 medium (with no EGF).
# The BAOs were sacrificed after 3 days and 7 days and were stained for glial fibrillary acidic protein (GFAP) by immunocytochemistry. GFAP is an intermediate filament protein specifically expressed in astrocytes. […]
# [2] = tested on: PC12 cells
Substance,"GFAP Reactivity ([1]; cell clusters, 3 days)","GFAP Reactivity ([1]; cell clusters, 7 days)","GFAP Reactivity ([1]; single cell, 3 days)","GFAP Reactivity ([1]; single cell, 7 days)",toxicity of scaffold to PC12 cells [2]
"EGF: epidermal growth factor, 20 ng/ml in neurosphere medium",Negative,Negative,Negative,Negative,–
poly(hydroxyethyl methacrylate) [PHEMA],–,–,–,–,nontoxic
